Columns and labels:
PKCθ = target: T1, PKCθ (Homo sapiens, UniProt Q04759); assay: PKCθ IMAP Assay; type: biochemical; settings: IMAP fluorescence polarization screening assay, 35 μM ATP
T1 construct: purchased Invitrogen
Description: The following is an example of an assay that can be used to determine the PKCθ inhibitory activity of a test compound. Reagents are prepared as follows:
Assay Buffer: 50 mM HEPES (pH 7.6), 10 mM MgCl, 0.1 mM EDTA, 5 mM MBP, 0.01% Triton, 1 mM DTT, 0.05 mg/ml phosphatidyl serine, 0.05 mg/ml diacylglycerol.
The final concentration of PKCθ (Invitrogen) is 0.5 nM. The final concentration of substrate (FAM-AKRRRLSSLRA) (Molecular Devices) is 100 nM. The final concentration of ATP in the reaction is 35 μM. The final concentration of DMSO in the reaction is 2.5%.
Enzyme is kept in 5 μl aliquots and stored at −80° C. prior to use. Test compound is allowed to pre-incubate with enzyme for 45 minutes before the reactions is initiated.
The reaction mixture consists of: 5 μl of test compound in 10% DMSO, 5 μl of 400 nM substrate (FAM-AKRRRLSSLRA), 5 μl of […] PKCθ, and 5 μl of 140 μM ATP (ATP is added to the reaction mixture last to initiate the reaction) per well.
The reaction is allowed to proceed for 60 minutes and is terminated by adding 30 μl per well of 90% Progressive A buffer/10% Progressive B buffer and a 1:400 dilution of binding beeds (Molecular Devices).
The reaction is given a binding incubation time of at least 30 minutes prior to reading the fluorescence polarization signal on an Analyst reader (the following detector settings are used: fluorescein excitation-485 nm, fluorescein emission-530 nm, fluorescein dichroic-505 nm).

mTOR = target: T2, mTOR (Homo sapiens, UniProt P42345); assay: mTOR HTR-FRET Assay; type: biochemical; settings: HTR-FRET screening assay, GST-p70S6 kinase fragment substrate
T2 construct: Dilute TOR fraction 1:14 in “Simple TOR Buffer”
Description: The following is an example of an assay that can be used to determine the mTOR inhibitory activity of a test compound. Reagents are prepared as follows:
“Simple TOR buffer” (used to dilute high glycerol TOR fraction): 10 mM Tris pH 7.4, 100 mM NaCl, 0.1% Tween-20, 1 mM DTT (from 1M stock frozen at −20° C. just prior to use). For convenience a large quantity of “Simple TOR buffer” w/o DTT can be stored at 4° C. It can be brought to room temperature and DTT added just prior to dilution of TOR fraction.
5×KB/5×Mn/5×ATP solution (used to dilute substrate GST-p70S6kin 81 a.a. just prior to use) (40 ml screen quantity shown):
Enzyme solution: Dilute TOR fraction 1:14 in “Simple TOR Buffer”. For current lot that is 640 μg/ml TOR fraction diluted 14× to yield 45.7 μg/ml TOR in buffer (i.e. 7.85 ml TOR pooled fraction+102.1 ml Simple TOR buffer=110 ml 14× diluted TOR fraction). Each Enzyme Lot must be QC'd prior to assay.
Substrate solution: This may be prepared just prior to assay if preferred. Dilute 5.3 mg/ml GST-p70S6kinase fragment stock to 3.5 μg/ml (97 nM) working stock in 5×KB/5×Mn/5×ATP solution (i.e. 26.41 μL (5.3 mg/ml) GST-p70S6+40 ml 5×KB/5×Mn/5×ATP=40 ml 3.5 μg/ml (97 nM)).
Assay Buffer (for dilution of Antibodies used in Antibody Detection Reagent):
Antibody Detection Reagent (this reagent should be made just prior to addition to Assay Plates):
Using PlateTrak program (Screen) or Matrix Pipettor (SAR), 19.5 μL of diluted TOR fraction is added to assay plate in all test, reference or positive control wells. 19.5 μL of “Simple TOR buffer” is added to all negative control wells. If treating multiple plates with the same compounds, can increase volume of enzyme to multiples of 19.5 μL in a tall 384 well polypropylene plate.
Using EP3, 0.5 μl of test, reference or control DMSO is added to each well with mixing. Plates are incubated for 30 minutes at room temperature.
Using PlateTrak program (Screen) or Matrix Pipettor (SAR) 5 μL of 5×KB/5×Mn/5×ATP/5× substrate solution is added to each well of the assay plate to start the reaction. The solutions are mixed well and incubated for 2 hours at room temperature.
Using PlateTrak program (Screen) or Matrix Pipettor (SAR) 5 μL of 60 mM EDTA is added to stop the reaction. The solutions are mixed well and allowed to sit for 15-20 minutes before the next step.
Using PlateTrak program (Screen) or Matrix Pipettor (SAR) 10 μl of Antibody Detection Reagent is added. The solutions are mixes well and incubated for 5 hours to O/N to allow antibodies to form complexes with phosphorylated substrate.
Plates are read on AnalystHT using protocol Multi-Method protocol.

T1 sequence (Q04759 whole entry): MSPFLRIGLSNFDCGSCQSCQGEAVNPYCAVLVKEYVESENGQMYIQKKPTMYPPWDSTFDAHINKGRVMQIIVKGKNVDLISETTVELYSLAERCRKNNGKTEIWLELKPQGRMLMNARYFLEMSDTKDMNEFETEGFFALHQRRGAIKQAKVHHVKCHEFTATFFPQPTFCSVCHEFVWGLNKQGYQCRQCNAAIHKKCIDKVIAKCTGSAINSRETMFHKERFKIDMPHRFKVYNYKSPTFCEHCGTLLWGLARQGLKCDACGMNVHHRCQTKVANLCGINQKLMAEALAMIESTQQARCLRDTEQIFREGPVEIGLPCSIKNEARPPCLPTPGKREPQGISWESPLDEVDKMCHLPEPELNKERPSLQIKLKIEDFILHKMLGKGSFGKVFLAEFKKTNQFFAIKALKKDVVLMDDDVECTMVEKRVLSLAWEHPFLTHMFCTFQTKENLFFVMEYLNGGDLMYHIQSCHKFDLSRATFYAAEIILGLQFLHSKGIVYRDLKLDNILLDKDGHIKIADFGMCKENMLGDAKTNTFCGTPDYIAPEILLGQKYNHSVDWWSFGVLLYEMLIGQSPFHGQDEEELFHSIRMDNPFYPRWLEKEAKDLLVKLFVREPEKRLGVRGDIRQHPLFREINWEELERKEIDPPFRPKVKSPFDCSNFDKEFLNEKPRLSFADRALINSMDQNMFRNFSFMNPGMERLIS

| Compound | IC50 (PKCθ) [µM] | IC50 (mTOR) [µM] | melting point [°C] |
| --- | --- | --- | --- |
| O=c1[nH]c2ncc(-c3cccc4ncccc34)nc2n1C1CCC(O)CC1 (centres unmarked) [Compound 59, 1-((1s,4s)-4-hydroxycyclohexyl)-6-(quinolin-5-yl)-1H-imidazo[4,5-b]pyrazin-2(3H)-one] | 10.1 to 20 | 10.1 to 20 |  |
| COc1cccc(C(C)n2c(=O)[nH]c3ncc(-c4cccc5ncccc45)nc32)c1 (centres unmarked) [Compound 55, 1-(1-(3-methoxyphenyl)ethyl)-6-(quinolin-5-yl)-1H-imidazo[4,5-b]pyrazin-2(3H)-one] | 0.1 to 5 | 5.1 to 10 |  |
| O=c1[nH]c2ncc(-c3cccc4ncccc34)nc2n1C1CCOCC1 [Compound 57, 6-(quinolin-5-yl)-1-(tetrahydro-2H-pyran-4-yl)-1H-imidazo[4,5-b]pyrazin-2(3H)-one] | > 30 | > 30 |  |
| CC(c1ccccc1)n1c(=O)oc2ncc(-c3cccc4ncccc34)nc21 (centres unmarked) [Compound 86, 3-(1-phenylethyl)-5-(quinolin-5-yl)oxazolo[5,4-b]pyrazin-2(3H)-one] |  | > 30 |  |
| CC(c1ccccc1)n1c(=O)[nH]c2ncc(-c3cccc(N(C)C)c3)nc21 (centres unmarked) [Compound 81, 6-(3-(dimethylamino)phenyl)-1-(1-phenylethyl)-1H-imidazo[4,5-b]pyrazin-2(3H)-one] |  | > 30 |  |
| CC(c1ccc(Cl)cc1)n1c(=O)[nH]c2ncc(-c3cccc4ncccc34)nc21 (centres unmarked) [Compound 65, 1-(1-(4-chlorophenyl)ethyl)-6-(quinolin-5-yl)-1H-imidazo[4,5-b]pyrazin-2(3H)-one] | 0.1 to 5 | 5.1 to 10 |  |
| C[C@@H](c1ccccc1)n1c(=O)[nH]c2cnc(-c3cccc4ncccc34)cc21 [Compound 25, (S)-1-(1-phenylethyl)-6-(quinolin-5-yl)-1H-imidazo[4,5-c]pyridin-2(3H)-one] | > 30 | > 30 |  |
| CC(C)n1c(=O)[nH]c2ncc(-c3cccc4ncccc34)nc21 [Compound 64, 1-isopropyl-6-(quinolin-5-yl)-1H-imidazo[4,5-b]pyrazin-2(3H)-one] | 20.1 to 30 | 5.1 to 10 |  |
| COc1cccc(Cn2c(=O)[nH]c3ncc(-c4cccc5ncccc45)nc32)c1 [Compound 47, 1-(3-methoxybenzyl)-6-(quinolin-5-yl)-1H-imidazo[4,5-b]pyrazin-2(3H)-one] | > 30 | 0.1 to 5 |  |
| O=c1[nH]c2ncc(-c3ccc(O)cc3)nc2n1CC1CCCCC1 [Compound 91, 1-(cyclohexylmethyl)-6-(4-hydroxyphenyl)-1H-imidazo[4,5-b]pyrazin-2(3H)-one] |  | 0.1 to 5 | 302 to 303 |
| O=c1[nH]c2ncc(-c3cccc4ncccc34)nc2n1C1CCCOC1 (centres unmarked) [Compound 58, 6-(quinolin-5-yl)-1-(tetrahydro-2H-pyran-3-yl)-1H-imidazo[4,5-b]pyrazin-2(3H)-one] | > 30 | 10.1 to 20 |  |
| Cc1nc2[nH]c(=O)n([C@H](C)c3ccccc3)c2nc1-c1cccc2ncccc12 [Compound 69, 5-methyl-1-((R)-1-phenylethyl)-6-(quinolin-5-yl)-1H-imidazo[4,5-b]pyrazin-2(3H)-one] | 5.1 to 10 | > 30 |  |
| CC(c1ccccc1)n1c(=O)[nH]c2ncc(-c3ccc4ncccc4c3)nc21 (centres unmarked) [Compound 73, 1-(1-phenylethyl)-6-(quinolin-6-yl)-1H-imidazo[4,5-b]pyrazin-2(3H)-one] | > 30 | 5.1 to 10 |  |
| COc1ccc(Cn2c(=O)[nH]c3ncc(-c4cccc5ncccc45)nc32)cc1 [Compound 15, 1-(4-methoxybenzyl)-6-(quinolin-5-yl)-1H-imidazo[4,5-b]pyrazin-2(3H)-one] | > 30 | 0.1 to 5 |  |
| CC[C@H](c1ccccc1)n1c(=O)[nH]c2ncc(-c3cccc4ncccc34)nc21 [Compound 45, (R)-1-(1-phenylpropyl)-6-(quinolin-5-yl)-1H-imidazo[4,5-b]pyrazin-2(3H)-one] | 0.1 to 5 | > 30 |  |
| CC(c1ccccc1)n1c(=O)[nH]c2ncc(-c3cccc(NS(C)(=O)=O)c3)nc21 (centres unmarked) [Compound 84, N-(3-(2-oxo-3-(1-phenylethyl)-2,3-dihydro-1H-imidazo[4,5-b]pyrazin-5-yl)phenyl)methanesulfonamide] | 10.1 to 20 | 0.1 to 5 |  |
| CC(C)Cn1c(=O)[nH]c2ncc(-c3ccc(O)cc3)nc21 [Compound 89, 6-(4-hydroxyphenyl)-1-isobutyl-1H-imidazo[4,5-b]pyrazin-2(3H)-one] |  | 0.1 to 5 | 290 to 291 |
| O=c1[nH]c2ncc(-c3cccc4ncccc34)nc2n1[C@@H](CO)c1ccccc1 [Compound 40, (R)-1-(2-hydroxy-1-phenylethyl)-6-(quinolin-5-yl)-1H-imidazo[4,5-b]pyrazin-2(3H)-one] | 10.1 to 20 | 10.1 to 20 |  |
| COc1ccc(C(C)n2c(=O)[nH]c3ncc(-c4cccc5ncccc45)nc32)cc1 (centres unmarked) [Compound 56, 1-(1-(4-methoxyphenyl)ethyl)-6-(quinolin-5-yl)-1H-imidazo[4,5-b]pyrazin-2(3H)-one] | 0.1 to 5 | > 30 |  |
| CC(c1ccccc1)n1c(=O)[nH]c2ncc(-c3ccc(S(C)(=O)=O)cc3)nc21 (centres unmarked) [Compound 85, 6-(4-(methylsulfonyl)phenyl)-1-(1-phenylethyl)-1H-imidazo[4,5-b]pyrazin-2(3H)-one] | > 30 | 5.1 to 10 |  |
| CC(C)n1c(=O)[nH]c2ncc(-c3ccc(O)cc3)nc21 [Compound 88, 6-(4-hydroxyphenyl)-1-isopropyl-1H-imidazo[4,5-b]pyrazin-2(3H)-one] |  | 0.1 to 5 | 323 to 324 |
| O=c1[nH]c2ncc(-c3ccc(O)cc3)nc2n1CC1CCCC1 [Compound 87, 1-(cyclopentylmethyl)-6-(4-hydroxyphenyl)-1H-imidazo[4,5-b]pyrazin-2(3H)-one] |  | 0.1 to 5 | 296 to 297 |
| O=c1[nH]c2ncc(-c3ccc(O)cc3)nc2n1CC1CCOCC1 [Compound 6, 6-(4-hydroxyphenyl)-1-((tetrahydro-2H-pyran-4-yl)methyl)-1H-imidazo[4,5-b]pyrazin-2(3H)-one] |  | 0.1 to 5 |  |
| C[C@H](c1ccccc1)n1c(=O)n(C)c2ncc(-c3cccc4ncccc34)nc21 [Compound 48, (R)-1-methyl-3-(1-phenylethyl)-5-(quinolin-5-yl)-1H-imidazo[4,5-b]pyrazin-2(3H)-one] | > 30 |  |  |
| O=c1[nH]c2ncc(-c3ccc(O)cc3)nc2n1CC1CCCOC1 (centres unmarked) [Compound 90, 6-(4-hydroxyphenyl)-1-((tetrahydro-2H-pyran-3-yl)methyl)-1H-imidazo[4,5-b]pyrazin-2(3H)-one] |  | 0.1 to 5 | 271 to 272 |
| CC(c1ccccc1)n1c(=O)[nH]c2ncc(-c3cccc(N)c3)nc21 (centres unmarked) [Compound 80, 6-(3-aminophenyl)-1-(1-phenylethyl)-1H-imidazo[4,5-b]pyrazin-2(3H)-one] |  | 5.1 to 10 |  |

Source: patent US7981893B2, “Heteroaryl compounds, compositions thereof, and methods of treatment therewith” (Signal Pharmaceuticals, LLC, priority 2006, dated 2011)
